Here are results for 30 compounds from US10968203B2, “Pyrimidinyl-pyridyloxy-naphthyl compounds and methods of treating IRE1-related diseases and disorders” (Genentech, Inc., priority 2017, dated 2021).

The test system of the assay is XBP1s-luc 293 LUC. Description: cellular PD assay, XBP1s-LUC reporter (Example 903). The conditions noted are these: read-out: XBP1s-luc 293 LUC (IC50). It counts as cell-based. In short, it runs like this:
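A luciferase fusion, in frame and expressed only when the XBP1 transcript is spliced, served as the readout of cellular IRE1α activity in an XBP1-Luc reporter line.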

Molecules are shown by their SMILES. pIC50: −log10 of the molar value. Where a name gives a salt, the structure may show the parent alone. Read-outs that look alike come from different tables or passages of the source.

As for `Cc1ccc2c(NS(=O)(=O)CC(C)C)c(F)ccc2c1Oc1ncccc1-c1ccnc(N[C@@H]2CNC[C@H](C)C2)n1` [Example 369, N-(2-Fluoro-6-methyl-5-((3-(2-(((3S,5R)-5-methylpiperidin-3-yl)amino)pyrimidin-4-yl)pyridin-2-yl)oxy)naphthalen-1-yl)-2-methylpropane-1-sulfonamide], for the setting “Table 1”, the pIC50 was 7.71.

Take `CCc1nc(CNc2cccc3c(Oc4ncccc4-c4ccnc(N[C@H]5CCCNC5)n4)c(C)ccc23)cs1` [Example 345, (S)-4-(2-((5-(((2-Ethylthiazol-4-yl)methyl)amino)-2-methylnaphthalen-1-yl)oxy)pyridin-3-yl)-N-(piperidin-3-yl)pyrimidin-2-amine]: the pIC50 (Table 1) is 6.77.

In the case of `CCC(=O)Nc1cccc2c(Oc3ncccc3-c3ccnc(N[C@H]4CCCNC4)n3)c(C)ccc12` [Example 173, (S)—N-(6-Methyl-5-((3-(2-(piperidin-3-ylamino)pyrimidin-4-yl)pyridin-2-yl)oxy)naphthalen-1-yl)propionamide], where the note is “Table 1”, the pIC50 was 6.65.

`Cc1ccc2c(NC[C@H]3CCOC3)cccc2c1Oc1ncccc1-c1ccnc(N[C@H]2CCCNC2)n1` (single isomer, unassigned) [Example 352]: the pIC50 (Table 1) is 6.30.

As for `Cc1ccc2c(NS(=O)(=O)Cc3ccccc3F)c(F)ccc2c1Oc1ncccc1-c1ccnc(N[C@H]2CNC[C@H](F)C2)n1` (single isomer, unassigned) [Example 463, hydrochloride], the pIC50 (Table 2) was 6.57.

Regarding `CO[C@@H](CNc1cccc2c(Oc3ncccc3-c3ccnc(N[C@@H]4CNC[C@@H](F)C4)n3)c(C)ccc12)C(F)(F)F` (single isomer, unassigned) [Example 493, hydrochloride], the negative logarithm of the IC50 (pIC50) (Table 2) was 7.68.

Regarding `CCCS(=O)(=O)Nc1c(F)ccc2c(Oc3ncccc3-c3ccnc(N[C@@H]4CNC[C@H](C)C4)n3)c(C)ccc12` [Example 367, N-(2-Fluoro-6-methyl-5-((3-(2-(((3S,5R)-5-methylpiperidin-3-yl)amino)pyrimidin-4-yl)pyridin-2-yl)oxy)naphthalen-1-yl)propane-1-sulfonamide], the pIC50 (Table 1) was 7.84.

For `Cc1ccc2c(NCc3ccccn3)cccc2c1Oc1ncccc1-c1ccnc(N[C@H]2CCCNC2)n1` [Example 261, (S)-4-(2-((2-Methyl-5-((pyridin-2-ylmethyl)amino)naphthalen-1-yl)oxy)pyridin-3-yl)-N-(piperidin-3-yl)pyrimidin-2-amine], under “Table 1”, the pIC50 was 6.66.

As for `Cc1ccc2c(NC(=O)[C@@H]3C[C@H]3C(F)F)cccc2c1Oc1ncccc1-c1ccnc(N[C@H]2CCCNC2)n1` [Example 293, (1R,2R)-2-(Difluoromethyl)-N-(6-methyl-5-((3-(2-(((S)-piperidin-3-yl)amino)pyrimidin-4-yl)pyridin-2-yl)oxy)naphthalen-1-yl)cyclopropane-1-carboxamide], the pIC50 (Table 1) is 7.04.

On to `Cc1ccc2c(NS(=O)(=O)Cc3ccc(C(F)F)cc3)cccc2c1Oc1ncccc1-c1ccnc(N[C@H]2CCCNC2)n1` [Example 160, (S)-1-(4-(Difluoromethyl)phenyl)-N-(6-methyl-5-((3-(2-(piperidin-3-ylamino)pyrimidin-4-yl)pyridin-2-yl)oxy)naphthalen-1-yl)methanesulfonamide], for which, for the setting “Table 1”, the pIC50 is 7.89.

On to `Cc1ccc2c(NS(=O)(=O)CCC(F)F)c(F)ccc2c1Oc1ncccc1-c1ccnc(N[C@@H]2CNC[C@H](C)C2)n1` [Example 472, 3,3-Difluoro-N-(2-fluoro-6-methyl-5-((3-(2-(((3S,5R)-5-methylpiperidin-3-yl)amino)pyrimidin-4-yl)pyridin-2-yl)oxy)naphthalen-1-yl)propane-1-sulfonamide], for which the pIC50 (Table 2) was 8.10.

`COC(C)CS(=O)(=O)Nc1c(F)ccc2c(Oc3ncccc3-c3ccnc(N[C@H]4CCCNC4)n3)c(C)ccc12` (stereo partly drawn) [Example 404, N-(2-Fluoro-6-methyl-5-((3-(2-(((S)-piperidin-3-yl)amino)pyrimidin-4-yl)pyridin-2-yl)oxy)naphthalen-1-yl)-2-methoxypropane-1-sulfonamide]: for the setting “Table 2”, the pIC50 was 7.47.

For the compound `Cc1ccc2c(NS(=O)(=O)CC3CCCO3)cccc2c1Oc1ncccc1-c1ccnc(N[C@H]2CCCNC2)n1` (stereo partly drawn) [Example 141, N-(6-Methyl-5-((3-(2-((S)-piperidin-3-ylamino)pyrimidin-4-yl)pyridin-2-yl)oxy)naphthalen-1-yl)-1-(tetrahydrofuran-2-yl)methanesulfonamide], the pIC50 (Table 1) was 6.34.

Turning to `Cc1ccc2c(NS(=O)(=O)Cc3ccccn3)cccc2c1Oc1ncccc1-c1ccnc(N[C@@H]2CNC[C@H](F)C2)n1` [Example 225, N-(5-((3-(2-(((3S,5R)-5-Fluoropiperidin-3-yl)amino)pyrimidin-4-yl)pyridin-2-yl)oxy)-6-methylnaphthalen-1-yl)-1-(pyridin-2-yl)methanesulfonamide], under “Table 1”, the pIC50 was 6.33.

Take `Cc1ccc2c(NC[C@@H](C#N)C(C)C)cccc2c1Oc1ncccc1-c1ccnc(N[C@H]2CCCNC2)n1` [Example 423, (S)-3-Methyl-2-(((6-methyl-5-((3-(2-(((S)-piperidin-3-yl)amino)pyrimidin-4-yl)pyridin-2-yl)oxy)naphthalen-1-yl)amino)methyl) butanenitrile]: the pIC50 (Table 2) is 6.68.

As to `Cc1ccc2c(NC(=O)C3CCCCC3)cccc2c1Oc1ncccc1-c1ccnc(N[C@H]2CCCNC2)n1` [Example 190, (S)—N-(6-Methyl-5-((3-(2-(piperidin-3-ylamino)pyrimidin-4-yl)pyridin-2-yl)oxy)naphthalen-1-yl)cyclohexanecarboxamide], the pIC50 (Table 1) is 6.56.

On to `Cc1ccc2c(NC(=O)C3CC3C(F)(F)F)cccc2c1Oc1ncccc1-c1ccnc(N[C@H]2CCCNC2)n1` (single isomer, unassigned) [Example 228], for which the pIC50 (Table 1) was 7.06.

In the case of `Cc1nc(CNc2c(F)ccc3c(Oc4ncccc4-c4ccnc(N[C@@H]5CNC[C@H](C)C5)n4)c(C)ccc23)cs1` [Example 307, 4-(2-((6-Fluoro-2-methyl-5-(((2-methylthiazol-4-yl)methyl)amino)naphthalen-1-yl)oxy)pyridin-3-yl)-N-((3S,5R)-5-methylpiperidin-3-yl)pyrimidin-2-amine], under “Table 1”, the pIC50 was 6.44.

For `Cc1ccc2c(NS(=O)(=O)CC3CC(F)(F)C3)c(F)ccc2c1Oc1ncccc1-c1ccnc(N[C@H]2CCCNC2)n1` [Example 433, (S)-1-(3,3-Difluorocyclobutyl)-N-(2-fluoro-6-methyl-5-((3-(2-(piperidin-3-ylamino)pyrimidin-4-yl)pyridin-2-yl)oxy)naphthalen-1-yl)methanesulfonamide], for the setting “Table 2”, the pIC50 is 7.12.

Take `Cc1ccc2c(NC(=O)C(C)C)cccc2c1Oc1ncccc1-c1ccnc(N[C@H]2CCCNC2)n1` [Example 263, (S)—N-(6-Methyl-5-((3-(2-(piperidin-3-ylamino)pyrimidin-4-yl)pyridin-2-yl)oxy)naphthalen-1-yl)isobutyramide hydrochloride]: the pIC50 (Table 1) is 6.44.

Consider `Cc1ccc2c(NS(=O)(=O)Cc3cscn3)cccc2c1Oc1ncccc1-c1ccnc(N[C@H]2CCCNC2)n1` [Example 156, (S)—N-(6-Methyl-5-((3-(2-(piperidin-3-ylamino)pyrimidin-4-yl)pyridin-2-yl)oxy)naphthalen-1-yl)-1-(thiazol-4-yl)methanesulfonamide], for which the pIC50 (Table 1) was 6.80.

Regarding `Cc1ccc2c(NS(=O)(=O)C[C@@H]3CCC3(F)F)c(F)ccc2c1Oc1ncccc1-c1ccnc(N[C@H]2CCCNC2)n1` (single isomer, unassigned) [Example 470, hydrochloride], the pIC50 (Table 2) is 7.62.

On to `Cc1ccc2c(NCC[C@@H](C)O)cccc2c1Oc1ncccc1-c1ccnc(N[C@H]2CCCNC2)n1` (single isomer, unassigned) [Example 201], for which the pIC50 (Table 1) was 6.88.

As to `Cc1ccc2c(NS(=O)(=O)Cc3ccn(C)n3)c(F)ccc2c1Oc1ncccc1-c1ccnc(N[C@H]2CCCNC2)n1` [Example 449, N-[2-Fluoro-6-methyl-5-[[3-[2-[[(3S)-3-piperidyl]amino]pyrimidin-4-yl]-2-pyridyl]oxy]-1-naphthyl]-1-(1-methylpyrazol-3-yl)methanesulfonamide hydrochloride], the pIC50 (Table 2) is 7.60.

As for `CCC(F)(F)CS(=O)(=O)Nc1c(F)ccc2c(Oc3ncccc3-c3ccnc(N[C@@H]4CNC[C@H](C)C4)n3)c(C)ccc12` [Example 486, 2,2-Difluoro-N-[2-fluoro-6-methyl-5-[[3-[2-[[(3S,5R)-5-methyl-3-piperidyl]amino]pyrimidin-4-yl]-2-pyridyl]oxy]-1-naphthyl]butane-1-sulfonamide hydrochloride], the pIC50 (Table 2) was 8.52.

On to `Cc1cc(S(=O)(=O)Nc2cccc3c(Oc4ncccc4-c4ccnc(N[C@H]5CCCNC5)n4)c(C)ccc23)sn1` [Example 168, (S)-3-Methyl-N-(6-methyl-5-((3-(2-(piperidin-3-ylamino)pyrimidin-4-yl)pyridin-2-yl)oxy)naphthalen-1-yl)isothiazole-5-sulfonamide], for which the pIC50 (Table 1) is 6.76.

Turning to `Cc1c(F)c(NS(=O)(=O)CCC(F)(F)F)c2ccccc2c1Oc1ncccc1-c1ccnc(N[C@H]2CC[C@H](N)CC2)n1` [Example 483, N-(4-((3-(2-(((1r,4r)-4-Aminocyclohexyl)amino)pyrimidin-4-yl)pyridin-2-yl)oxy)-2-fluoro-3-methylnaphthalen-1-yl)-3,3,3-trifluoropropane-1-sulfonamide], the pIC50 (Table 2) was 6.84.

Take `COCCS(=O)(=O)Nc1cccc2c(Oc3ncccc3-c3ccnc(N[C@H]4CCCNC4)n3)c(C)ccc12` [Example 137, (S)-2-Methoxy-N-(6-methyl-5-((3-(2-(piperidin-3-ylamino)pyrimidin-4-yl)pyridin-2-yl)oxy)naphthalen-1-yl)ethanesulfonamide]: the pIC50 (Table 1) was 6.32.

`Cc1ccc2c(NCC(O)C(C)C)cccc2c1Oc1ncccc1-c1ccnc(N[C@H]2CCCNC2)n1` (single isomer, unassigned) [Example 462, hydrochloride]: the pIC50 (Table 2) was 6.96.

On to `Cc1ccc2c(NC(=O)c3ccc4ccccc4c3)cccc2c1Oc1ncccc1-c1ccnc(N[C@H]2CCCNC2)n1` [Example 174, (S)—N-(6-Methyl-5-((3-(2-(piperidin-3-ylamino)pyrimidin-4-yl)pyridin-2-yl)oxy)naphthalen-1-yl)-2-naphthamide], for which the pIC50 (Table 1) is 6.56.
